Measured values taken from paper PMC5794489 (Biochemical pharmacology, 2017).
“Also recorded” adds a separate entry of the source. *1 amine or outer side, *2 acyl side, *3 side chain or, on linkers, in order; H or OH if unused. Where a SMILES comes first, the peptide text is derived from it. [ ]: non-standard residue; d: D form. X1 = O=C([C@H]1CCC[C@@H]1N[*:1])[*:2]; X2 = O=C([C@H]1CNC[C@@H]1N[*:1])[*:2]; Aib = CC(C)(N)C(=O)O

Legend:
[1] = target: T1, human GLP-1R (Homo sapiens, UniProt P43220); assay: Intracellular calcium mobilization; assay type: cell-based; conditions: for Emax: read-out: iCa2+ Emax
T1 sequence (P43220 24-463): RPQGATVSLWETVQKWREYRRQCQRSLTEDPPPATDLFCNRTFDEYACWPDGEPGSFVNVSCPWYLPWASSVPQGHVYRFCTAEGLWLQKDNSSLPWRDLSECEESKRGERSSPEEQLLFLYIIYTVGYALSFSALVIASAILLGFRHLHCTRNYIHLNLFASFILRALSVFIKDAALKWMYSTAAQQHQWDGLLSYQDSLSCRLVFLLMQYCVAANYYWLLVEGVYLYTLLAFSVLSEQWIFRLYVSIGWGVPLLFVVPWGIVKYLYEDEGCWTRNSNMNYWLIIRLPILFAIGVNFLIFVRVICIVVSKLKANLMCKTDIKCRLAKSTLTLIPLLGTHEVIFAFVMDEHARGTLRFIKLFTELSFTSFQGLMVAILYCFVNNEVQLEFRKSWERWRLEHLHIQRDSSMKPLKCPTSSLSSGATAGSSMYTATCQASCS

[2] = tested on: human GLP-1R; assay: Stimulus bias, operational model of agonism, Δlog; assay type: cell-based; conditions: bias relative to GLP-1; FlpInCHO; mean ± SEM, three to four experiments
[3] = target: T1, human GLP-1R; assay: β-Arrestin-2 recruitment BRET assay; conditions: for Emax: read-out: β-Arrestin-2 Emax; for β-arrestin-2 recruitment, result in words: FlpInCHO BRET, native β-arrestin-2
[4] = target: T1, human GLP-1R; assay: ERK1/2 phosphorylation; assay type: cell-based; conditions: read-out: pERK1/2 Emax
[5] = target: T1, human GLP-1R; assay: β-Arrestin-1 recruitment BRET assay; conditions: for Emax: read-out: β-Arrestin-1 Emax
[6] = target: T1, human GLP-1R; assay: cAMP accumulation in GLP-1R FlpInCHO cells; assay type: cell-based; conditions: Flp-In-CHO, read-out: cAMP Emax
[7] = target: T1, human GLP-1R; assay: Radioligand competition binding on whole GLP-1R FlpInCHO cells; conditions: GLP-1R in FlpIn CHO cells
[8] = tested on: human GLP-1R; conditions: FlpIn CHO cells; cited from earlier work

Compound	Emax [1] [%]	Δlog(τ/KA) Ca2+ vs cAMP [2]	Δlog(τ/KA) pERK1/2 vs cAMP [2]	Δlog(τ/KA) βArr1 vs pERK1/2 [2]	Δlog(τ/KA) βArr2 vs cAMP [2]	Δlog(τ/KA) βArr2 vs pERK1/2 [2]	Emax [4] [%]	Emax [6] [%]	β-arrestin-2 recruitment, result in words [3]	also measured
CC[C@H](C)[C@H](NC(=O)[C@H](Cc1ccccc1)NC(=O)[C@H](CCC(=O)O)NC(=O)[C@H]1CNC[C@@H]1NC(=O)[C@H](C)NC(=O)[C@H](C)NC(=O)[C@H](CCC(N)=O)NC(=O)CNC(=O)[C@H](CCC(=O)O)NC(=O)[C@H](CC(C)C)NC(=O)[C@H](Cc1ccc(O)cc1)NC(=O)[C@H](CO)NC(=O)[C@H](CO)NC(=O)[C@@H](NC(=O)[C@H](CC(=O)O)NC(=O)[C@H](CO)NC(=O)[C@@H](NC(=O)[C@H](Cc1ccccc1)NC(=O)[C@@H](NC(=O)CNC(=O)[C@H](CCC(=O)O)NC(=O)[C@H](C)NC(=O)[C@@H](N)Cc1c[nH]cn1)[C@@H](C)O)[C@@H](C)O)C(C)C)C(=O)N[C@H]1CCC[C@@H]1C(=O)N[C@@H](Cc1c[nH]c2ccccc12)C(=O)N[C@@H](CC(C)C)C(=O)N[C@H](C(=O)N[C@H]1CNC[C@@H]1C(=O)NCC(=O)N[C@@H](CCCNC(=N)N)C(=O)NCC(N)=O)C(C)C [P1] (H-HAEGTFTSDVSSYLEGQAA[X2]EFI[X1]WLV[X2]GRG-NH2)	89 ± 8	0.4 ± 0.1	0.5 ± 0.2	0.0 ± 0.2	0.5 ± 0.2	−0.1 ± 0.3	112 ± 8			Δlog(τ/KA) βArr1 vs Ca2+ [2]: −0.1 ± 0.2; Δlog(τ/KA) βArr1 vs cAMP [2]: 0.4 ± 0.1; Δlog(τ/KA) βArr2 vs Ca2+ [2]: −0.2 ± 0.2; Emax [3]: 108 ± 5%; Emax [5]: 85 ± 7%
CC[C@H](C)[C@H](NC(=O)[C@H](Cc1ccccc1)NC(=O)[C@H](CCC(=O)O)NC(=O)[C@H]1CNC[C@@H]1NC(=O)[C@H](C)NC(=O)[C@H](C)NC(=O)[C@H](CCC(N)=O)NC(=O)[C@H]1CCC[C@@H]1NC(=O)[C@H](CCC(=O)O)NC(=O)[C@H](CC(C)C)NC(=O)[C@H](Cc1ccc(O)cc1)NC(=O)[C@H]1CCC[C@@H]1NC(=O)[C@H](CO)NC(=O)[C@@H](NC(=O)[C@H](CC(=O)O)NC(=O)[C@H](CO)NC(=O)[C@@H](NC(=O)[C@H](Cc1ccccc1)NC(=O)[C@@H](NC(=O)CNC(=O)[C@H](CCC(=O)O)NC(=O)[C@H](C)NC(=O)[C@@H](N)Cc1c[nH]cn1)[C@@H](C)O)[C@@H](C)O)C(C)C)C(=O)N[C@H]1CCC[C@@H]1C(=O)N[C@@H](Cc1c[nH]c2ccccc12)C(=O)N[C@@H](CC(C)C)C(=O)N[C@H](C(=O)N[C@H]1CNC[C@@H]1C(=O)NCC(=O)N[C@@H](CCCNC(=N)N)C(=O)NCC(N)=O)C(C)C [P3]				−0.1 ± 0.3	0.5 ± 0.3	−0.6 ± 0.2				
CC[C@H](C)[C@H](NC(=O)[C@H](Cc1ccccc1)NC(=O)[C@H](CCC(=O)O)NC(=O)[C@H]1CNC[C@@H]1NC(=O)[C@H](C)NC(=O)[C@H](C)NC(=O)[C@H](CCC(N)=O)NC(=O)[C@H]1CCC[C@@H]1NC(=O)[C@H](CCC(=O)O)NC(=O)[C@H](CC(C)C)NC(=O)[C@H](Cc1ccc(O)cc1)NC(=O)[C@H]1CCC[C@@H]1NC(=O)[C@H](CO)NC(=O)C(C)(C)NC(=O)[C@H](CC(=O)O)NC(=O)[C@H](CO)NC(=O)[C@@H](NC(=O)[C@H](Cc1ccccc1)NC(=O)[C@@H](NC(=O)CNC(=O)[C@H](CCC(=O)O)NC(=O)C(C)(C)NC(=O)[C@@H](N)Cc1c[nH]cn1)[C@@H](C)O)[C@@H](C)O)C(=O)N[C@H]1CCC[C@@H]1C(=O)N[C@@H](Cc1c[nH]c2ccccc12)C(=O)N[C@@H](CC(C)C)C(=O)N[C@H](C(=O)N[C@H]1CNC[C@@H]1C(=O)NCC(=O)N[C@@H](CCCNC(=N)N)C(=O)NCC(N)=O)C(C)C [P4] (H-H[Aib]EGTFTSD[Aib]S[X1]YLE[X1]QAA[X2]EFI[X1]WLV[X2]GRG-NH2)	90 ± 40	−0.2 ± 0.2					81 ± 8	97 ± 7	weak β-arrestin-2 responses; also recorded: no measurable signal	further reduction in affinity relative to other α/β-peptides in this set [7]: 10 fold; β-arrestin-1 recruitment, result in words ([5]; FlpInCHO BRET): no measurable signal
CC[C@H](C)[C@H](NC(=O)[C@H](Cc1ccccc1)NC(=O)[C@H](CCC(=O)O)NC(=O)[C@H](CCCCN)NC(=O)[C@H](C)NC(=O)[C@H](C)NC(=O)[C@H](CCC(N)=O)NC(=O)CNC(=O)[C@H](CCC(=O)O)NC(=O)[C@H](CC(C)C)NC(=O)[C@H](Cc1ccc(O)cc1)NC(=O)[C@H](CO)NC(=O)[C@H](CO)NC(=O)C(C)(C)NC(=O)[C@H](CC(=O)O)NC(=O)[C@H](CO)NC(=O)[C@@H](NC(=O)[C@H](Cc1ccccc1)NC(=O)[C@@H](NC(=O)CNC(=O)[C@H](CCC(=O)O)NC(=O)C(C)(C)NC(=O)[C@@H](N)Cc1c[nH]cn1)[C@@H](C)O)[C@@H](C)O)C(=O)N[C@@H](C)C(=O)N[C@@H](Cc1c[nH]c2ccccc12)C(=O)N[C@@H](CC(C)C)C(=O)N[C@H](C(=O)N[C@@H](CCCCN)C(=O)NCC(=O)N[C@@H](CCCNC(=N)N)C(=O)NCC(N)=O)C(C)C [P6]	78 ± 5	−0.1 ± 0.2	0.1 ± 0.2	0.5 ± 0.3	−0.1 ± 0.2	−0.3 ± 0.2	80 ± 7			Δlog(τ/KA) βArr1 vs cAMP [2]: 0.4 ± 0.1; Δlog(τ/KA) βArr2 vs Ca2+ [2]: 0.0 ± 0.2; Emax [3]: 82 ± 5%; Emax [5]: 72 ± 4%
CC[C@H](C)[C@H](NC(=O)[C@H](Cc1ccccc1)NC(=O)[C@H](CCC(=O)O)NC(=O)[C@H]1CNC[C@@H]1NC(=O)[C@H](C)NC(=O)[C@H](C)NC(=O)[C@H](CCC(N)=O)NC(=O)[C@H]1CCC[C@@H]1NC(=O)[C@H](CCC(=O)O)NC(=O)[C@H](CC(C)C)NC(=O)[C@H](Cc1ccc(O)cc1)NC(=O)[C@H]1CCC[C@@H]1NC(=O)[C@H](CO)NC(=O)[C@@H](NC(=O)[C@H](CC(=O)O)NC(=O)[C@H](CO)NC(=O)[C@@H](NC(=O)[C@H](Cc1ccccc1)NC(=O)[C@@H](NC(=O)CNC(=O)[C@H](CCC(=O)O)NC(=O)[C@H](C)NC(=O)[C@@H](N)Cc1c[nH]cn1)[C@@H](C)O)[C@@H](C)O)C(C)C)C(=O)N[C@@H](C)C(=O)N[C@@H](Cc1c[nH]c2ccccc12)C(=O)N[C@@H](CC(C)C)C(=O)N[C@H](C(=O)N[C@@H](CCCCN)C(=O)NCC(=O)N[C@@H](CCCNC(=N)N)C(=O)NCC(N)=O)C(C)C [P8] (H-HAEGTFTSDVS[X1]YLE[X1]QAA[X2]EFIAWLVKGRG-NH2)			0.7 ± 0.3	0.0 ± 0.3			80 ± 8	83 ± 5	weak β-arrestin-2 responses	reduction in affinity relative to GLP-1 [7]: ~ 10 fold
CC[C@H](C)[C@H](NC(=O)[C@H](Cc1ccccc1)NC(=O)[C@H](CCC(=O)O)NC(=O)[C@H]1CNC[C@@H]1NC(=O)[C@H](C)NC(=O)[C@H](C)NC(=O)[C@H](CCC(N)=O)NC(=O)[C@H]1CCC[C@@H]1NC(=O)[C@H](CCC(=O)O)NC(=O)[C@H](CC(C)C)NC(=O)[C@H](Cc1ccc(O)cc1)NC(=O)[C@H]1CCC[C@@H]1NC(=O)[C@H](CO)NC(=O)[C@@H](NC(=O)[C@H](CC(=O)O)NC(=O)[C@H](CO)NC(=O)[C@@H](NC(=O)[C@H](Cc1ccccc1)NC(=O)[C@@H](NC(=O)CNC(=O)[C@H](CCC(=O)O)NC(=O)[C@H](C)NC(=O)[C@@H](N)Cc1c[nH]cn1)[C@@H](C)O)[C@@H](C)O)C(C)C)C(=O)N[C@H]1CCC[C@@H]1C(=O)N[C@@H](Cc1c[nH]c2ccccc12)C(=O)N[C@@H](CC(C)C)C(=O)N[C@H](C(=O)N[C@@H](CCCCN)C(=O)NCC(=O)N[C@@H](CCCNC(=N)N)C(=O)NCC(N)=O)C(C)C [P9] (H-HAEGTFTSDVS[X1]YLE[X1]QAA[X2]EFI[X1]WLVKGRG-NH2)				−0.1 ± 0.5			73 ± 9	107 ± 5	weak β-arrestin-2 responses	calcium mobilization, result in words ([1]; FlpIn CHO human GLP-1R): essentially abolished calcium mobilization; reduction in affinity relative to GLP-1 [7]: ~ 10 fold
exendin-4										bias ERK1/2 phosphorylation over cAMP accumulation, in words [8]: does not exhibit bias toward ERK1/2 phosphorylation
oxyntomodulin (HSQGTFTSDYSKYLDSRRAQDFVQWLMNTKRNRNNIA; Oxyntomodulin; UniProt P01275 53-89, looked up)										bias ERK1/2 phosphorylation over cAMP accumulation, in words [8]: biases the GLP-1R toward ERK1/2 phosphorylation over cAMP accumulation
